# Tests used:
# [1] = system: canola leaf; experiment: Uptake of [C14]-2,4-D DMA salt into canola leaf; assay type: in vivo; conditions: no adjuvant compound (0 % wt/vol), 2,4-D alone
# Procedure: The uptake of [C^14]-2,4-dichlorophenoxyacetic acid, dimethylamine salt (2,4-D DMA salt) (1% a.e./100 L/ha) was determined in canola at 2 HAT and 24 HAT (Hours After Treatment) according to the method described by Lui, in Pro. 18th Asian-Pacific Weed Sci. Soc. Conf., pp. 561-566. Liu, Z Q; 2001.
# [2] = Spreading of a 10 μL droplet of surfactant solution on polystyrene Petri dishes; assay type: physicochemical; conditions: 10 μL droplet on polystyrene, after 30 seconds, 22 to 25° C., RH 50-70%
# Procedure: Spreading was determined by applying a 10 μL droplet, of surfactant solution to polystyrene Petri dishes (Fisher Scientific) and measuring the spread diameter (mm) after 30 seconds, at a relative humidity between 50 and 70% (at 22 to 25° C.). The solution was applied with an automatic pipette to provide droplets of reproducible volume. Deionized water that was further purified with a Millipore filtration system was used to prepare the surfactant solutions.
Spread Diameter ([2]; 0.05 weight % compound) [mm],Spread Diameter ([2]; 0.1 weight % compound) [mm],Spread Diameter ([2]; 0.2 weight % compound) [mm],Compound,Uptake % (2 HAT) ([1]; 2 HAT) [e %],Uptake % (24 HAT) ([1]; 24 HAT) [a %]
,,,"CNC.O=C(O)COc1ccc(Cl)cc1Cl [2,4-D alone, 2,4-dichlorophenoxyacetic acid, dimethylamine salt]",12.1,70.2
10,21,33,"(H3C)3CCH2CH2—Si(CH3)2—CH2CH2CH2—O—CH2CH(OH)CH2N^+(CH3)2—CH2CH2CH2OH [Ex. 8, (H3C)3CCH2CH2—Si(CH3)2—CH2CH2CH2—O—CH2CH(OH)CH2N^+(CH3)2—CH2CH2CH2OH [(CH2OH)2(CH3)C—COO^−]]",,

# Source: patent US10233200B2, “Organomodified monosilyl compound, its preparation and applications thereof” (Momentive Performance Materials Inc., priority 2017, dated 2019)
